These are literature values, as cited in US20200222353A1, “Ketone ester and ketone salt compositions and methods for using the same” (priority 2019, published 2020).

Each structure is given as a SMILES string.

The conditions of data set [1]: in vivo.
The conditions of data set [2]: compared with D-BHB.

Turning to `C[C@@H](O)CC(=O)O` [D-BHB, (3R)-3-hydroxybutanoic acid], in data set [1], the “crossing of the blood-brain barrier (BBB)” value is “cross the blood-brain barrier”.

For the compound `C[C@H](O)CC(=O)O` [L-BHB, (3 S)-3-hydroxybutanoic acid], in data set [2], the “breakdown in the body and use for energy” value was “not to be broken down in the body and used for energy as quickly as D-BHB”.
